Measurements from patent publication US9783537B2, “3-(4-ethylnylphenyl) pyridopyrimidinone compounds and process for preparation thereof useful as potential anticancer agents” (Council of Scientific & Industrial Research, priority 2013, dated 2017).
Like-named read-outs stand apart in the source and are kept apart here.

Key:
[1] = test system: HL-60(TB); experiment: SRB 48 h growth assay, Leukemia HL-60(TB); type: cell-based, human
[2] = test system: K-562; experiment: SRB 48 h growth assay, Leukemia K-562; type: cell-based, human
[3] = test system: RPMI-8226; experiment: SRB 48 h growth assay, Leukemia RPMI-8226; type: cell-based, human; settings: RPMI-8226, Leukemia
[4] = test system: A549/ATCC; experiment: SRB 48 h growth assay, Non-small Cell Lung A549/ATCC; type: cell-based, human
[5] = test system: NCI-H226; experiment: SRB 48 h growth assay, Non-small Cell Lung NCI-H226; type: cell-based, human; settings: Homo sapiens
[6] = test system: HCT-15; experiment: SRB 48 h growth assay, Colon HCT-15; type: cell-based, human; settings: HCT-15, Colon
[7] = test system: SW-620; experiment: SRB 48 h growth assay, Colon SW-620; type: cell-based, human; settings: Homo sapiens, SW-620, Colon
[8] = test system: SF-268; experiment: SRB 48 h growth assay, CNS SF-268; type: cell-based, human; settings: SF-268, CNS
[9] = test system: SF-539; experiment: SRB 48 h growth assay, CNS SF-539; type: cell-based, human; settings: SF-539, CNS
[10] = test system: SNB-19; experiment: SRB 48 h growth assay, CNS SNB-19; type: cell-based, human; settings: SNB-19, CNS
[11] = test system: SNB-75; experiment: SRB 48 h growth assay, CNS SNB-75; type: cell-based, human; settings: SNB-75, CNS
[12] = test system: MALME-3M; experiment: SRB 48 h growth assay, Melanoma MALME-3M; type: cell-based, human
[13] = test system: M14; experiment: SRB 48 h growth assay, Melanoma M14; type: cell-based, human
[14] = test system: UACC-62; experiment: SRB 48 h growth assay, Melanoma UACC-62; type: cell-based, human; settings: UACC-62, Melanoma
[15] = test system: IGROV1; experiment: SRB 48 h growth assay, Ovarian IGROV1; type: cell-based, human
[16] = test system: OVCAR-4; experiment: SRB 48 h growth assay, Ovarian OVCAR-4; type: cell-based, human; settings: OVCAR-4, Ovarian
[17] = test system: OVCAR-8; experiment: SRB 48 h growth assay, Ovarian OVCAR-8; type: cell-based, human; settings: OVCAR-8, Ovarian
[18] = test system: A498; experiment: SRB 48 h growth assay, Renal A498; type: cell-based, human
[19] = test system: RXF393; experiment: SRB 48 h growth assay, Renal RXF393; type: cell-based, human
[20] = test system: UO-31; experiment: SRB 48 h growth assay, Renal UO-31; type: cell-based, human; settings: UO-31, Renal
[21] = test system: DU-145; experiment: SRB 48 h growth assay, Prostate DU-145; type: cell-based, human; settings: DU-145, Prostate
[22] = test system: MDA-MB-231/ATCC; experiment: SRB 48 h growth assay, Breast MDA-MB-231/ATCC; type: cell-based, human
[23] = test system: T-47D; experiment: SRB 48 h growth assay, Breast T-47D; type: cell-based, human
[24] = test system: MDA-MB-468; experiment: SRB 48 h growth assay, Breast MDA-MB-468; type: cell-based, human; settings: MDA-MB-468, Breast
[25] = test system: six CNS cancer cell line (SF-268, SF-295, SF-539, SNB-19, SNB-75 and U251); experiment: in vitro anticancer activity, CNS panel; type: cell-based; settings: Homo sapiens; six CNS cancer cell lines, exposure at least 48 h; read-out: GI50, range over panel
[26] = test system: two prostate cancer cell line (PC-3, DU-145); experiment: in vitro anticancer activity, prostate panel; type: cell-based; settings: Homo sapiens; two prostate cancer cell lines, exposure at least 48 h; read-out: GI50, range over panel
[27] = Homo sapiens, read-out: Growth Inhibition GI50
[28] = Homo sapiens, read-out: Log10 GI50 (converted)
[29] = Homo sapiens, read-out: Log10 LC50 (converted)
[30] = read-out: Growth Inhibition GI50
[31] = read-out: Log10 GI50 (converted)

`C#Cc1ccc(-n2c(/C=C/c3ccc4ccccc4c3)nc3ncccc3c2=O)cc1` [4s, (E)-3-(4-Ethynylphenyl)-2-(2-(naphthalen-2-yl)vinyl)pyrido[2,3-d]pyrimidin-4(3H)-one] was tested, and the “Log10 TGI50” value [1] was −5.05, the GI50 [1, 27] was 1660 nM and the GI50 [1, 28] was 1660 nM. The CC50 [1, 29] was 8910 nM, the GI50 ([2]; Homo sapiens, K562, K-562, Leukemia, read-out: Growth Inhibition GI50) was 2430 nM and the GI50 ([2]; Homo sapiens, K562, K-562, Leukemia, read-out: Log10 GI50 (converted)) was 2450 nM. For the same compound, the CC50 ([2]; Homo sapiens, K562, K-562, Leukemia, read-out: Log10 LC50 (converted)) was over 100000 nM, the “Log10 TGI50” value ([2]; K-562, Leukemia) was “->−4.00” and the GI50 [3, 27] was 450 nM. For the same compound, the GI50 [3, 28] was 447 nM, the CC50 [3, 29] was over 100000 nM and the “Log10 TGI50” value [3] was over −4.00. For the same compound, the “Log10 TGI50” value [4] was over −4.00, the GI50 [4, 27] was 2730 nM and the GI50 [4, 28] was 2750 nM. The CC50 [4, 29] was over 100000 nM, the GI50 [5, 30] was 2330 nM and the GI50 [5, 31] was 2340 nM. The “Log10 TGI50” value [6] was over −4.00, the GI50 [6, 27] was 2910 nM and the GI50 [6, 28] was 2880 nM. For the same compound, the CC50 [6, 29] was over 100000 nM, the GI50 [7, 30] was 2220 nM and the GI50 [7, 31] was 2240 nM. It also gave a GI50 [8, 27] of 2600 nM, a GI50 [8, 28] of 2630 nM and a CC50 [8, 29] of over 100000 nM. For the same compound, the “Log10 TGI50” value [8] was over −4.00, the GI50 [9, 27] was 2910 nM and the GI50 [9, 28] was 2880 nM. The CC50 [9, 29] was over 100000 nM, the “Log10 TGI50” value [9] was over −4.00 and the GI50 [10, 27] was 2950 nM. The CC50 [10, 29] was over 100000 nM, the “Log10 TGI50” value [10] was over −4.00 and the GI50 [11, 27] was 3690 nM. For the same compound, the GI50 [11, 28] was 2950 nM, the CC50 [11, 29] was over 100000 nM and the “Log10 TGI50” value [11] was over −4.00. For the same compound, the “Log10 TGI50” value [12] was over −4.00, the GI50 [12, 27] was 4970 nM and the GI50 [12, 28] was 6310 nM. The CC50 [12, 29] was over 100000 nM, the “Log10 TGI50” value [13] was −5.36 and the GI50 [13, 27] was 2070 nM. The GI50 [13, 28] was 2090 nM, the CC50 [13, 29] was 4370 nM and the GI50 [14, 27] was 2490 nM. For the same compound, the GI50 [14, 28] was 2510 nM, the CC50 [14, 29] was over 100000 nM and the “Log10 TGI50” value [14] was over −4.00. For the same compound, the “Log10 TGI50” value [15] was over −4.00, the GI50 ([15]; Homo sapiens, IGROV-1, read-out: Growth Inhibition GI50) was 2920 nM and the GI50 ([15]; Homo sapiens, IGROV-1, read-out: Log10 GI50 (converted)) was 2950 nM. The CC50 ([15]; Homo sapiens, IGROV-1, read-out: Log10 LC50 (converted)) was over 100000 nM, the GI50 [16, 27] was 1950 nM and the GI50 [16, 28] was 1950 nM. For the same compound, the CC50 [16, 29] was over 100000 nM, the “Log10 TGI50” value [16] was over −4.00 and the GI50 [17, 27] was 3050 nM. The GI50 [17, 28] was 3020 nM, the CC50 [17, 29] was over 100000 nM and the “Log10 TGI50” value [17] was over −4.00. For the same compound, the “Log10 TGI50” value [18] was −5.23, the GI50 [18, 27] was 1690 nM and the GI50 [18, 28] was 1700 nM. The CC50 [18, 29] was 5890 nM, the “Log10 TGI50” value [19] was −5.26 and the GI50 ([19]; Homo sapiens, RXF 393, read-out: Growth Inhibition GI50) was 1790 nM. The GI50 ([19]; Homo sapiens, RXF 393, read-out: Log10 GI50 (converted)) was 1780 nM, the CC50 ([19]; Homo sapiens, RXF 393, read-out: Log10 LC50 (converted)) was 5500 nM and the GI50 [20, 27] was 3110 nM. For the same compound, the GI50 [20, 28] was 3090 nM, the CC50 [20, 29] was over 100000 nM and the “Log10 TGI50” value [20] was over −4.00. The “Log10 TGI50” value [21] was over −4.00, the GI50 [21, 27] was 7450 nM and the GI50 [21, 28] was 7410 nM. For the same compound, the CC50 [21, 29] was over 100000 nM, the “Log10 TGI50” value [22] was over −4.00 and the GI50 [22, 27] was 3740 nM. The GI50 [22, 28] was 3720 nM, the CC50 [22, 29] was over 100000 nM and the “Log10 TGI50” value [23] was over −4.00. It also gave a GI50 ([23]; Homo sapiens, T47D, read-out: Growth Inhibition GI50) of 3900 nM, a GI50 ([23]; Homo sapiens, T47D, read-out: Log10 GI50 (converted)) of 3890 nM and a CC50 ([23]; Homo sapiens, T47D, read-out: Log10 LC50 (converted)) of over 100000 nM. The GI50 [24, 27] was 960 nM, the GI50 [24, 28] was 955 nM and the CC50 [24, 29] was 7760 nM. The “Log10 TGI50” value [24] was −5.11, the GI50 [25] was 200 to 720 nM and the GI50 [26] was 280 to 340 nM.
